Experimental data taken from paper PMC4934371 (Biochemistry, 2016).

Assays:
[1] = target: T1, triosephosphate isomerase (TbbTIM) (Trypanosoma brucei, UniProt P04789, I172A/L232A); assay: activation of [[…]-13C]-glycolaldehyde turnover followed by 1H NMR, fit to give Kd; type: biochemical
O=C[C@H](O)COP(=O)(O)O = assay: steady-state kinetics of isomerization; type: biochemical, Trypanosoma brucei; conditions: active site; pH 7.5; 25.0 °C
[2] = target: T1, triosephosphate isomerase (TbbTIM); assay: X-ray crystal structure; type: biochemical

Compound: O=[PH](O)O [HPi, phosphite dianion]
- Kd [1]: 5.9 ± 0.5 mM

Compound: triosephosphate isomerase (TbbTIM) (Trypanosoma brucei brucei; I172A/L232A)
- kcat/Km (O=C[C@H](O)COP(=O)(O)O): 350000 M⁻¹ s⁻¹

Compound: O=C(O)COP(=O)(O)O [PGA, 2-phosphoglycolate]
- Ki [2]: 0.12 mM
